The results in this text go back to US7943314B2, “Methods of detecting viability-associated molecules” (ISEAO Technologies Limited, priority 2005, dated 2011).

Assay [1] has as its system methicillin sensitive strain of Staphylococcus aureus (clinical isolate). As to the kind of experiment: ATP assay (ligase/quantitative PCR) of Staphylococcus aureus susceptibility to antibiotic, sensitive strain. In kind it is cell-based. As to conditions: grown 3 hours at 37° C. with 60 μg/ml oxacillin; FIG. 7. As for the experimental part: (§1) • 1. A bacterial culture of a clinical isolate of a MRSA and antibiotic sensitive strain of Staphylococcus aureus strain were prepared in Nutrient media (Lab M, UK) and grown to stationary phase at 37° C. overnight. • 2. The following day, a hundred-fold dilution of the bacterial cultures were prepared in the same media with 1 μl alkaline phosphatase (10 units, New England Biolabs) with and without 60 μg/ml oxacillin and grown for 3 hours at 37° C. • 3. For the quantitation of ATP, 10 μl of each 0 (10 μl culture removed and treated at time 0 min) and 3 hour culture were added to 2.5 μl of 1M NaOH, 1% (v/v) Triton X-100 and incubated for 5 min before neutralisation with 25 μl of 0.1M HCL. 4. 100 μl of ligase buffer was then added followed by 5 μl ligase/DNA substrate paramagnetic beads (prepared as described in Example 2 above). • 5. After incubation at 8° C. for 60 min, the beads were collected using a magnet and resuspended in 20 μl ligase buffer. • 6. After heating at 95° C. for 5 min, 2 μl of the eluted ligated product was quantitated by PCR. • 7. The quantitative PCR was performed as described previously. Results
There is growth and an increase of ATP observed after 3 hr compared to the zero time point. This growth and increase in ATP is not observed when the organism is grown in the presence of oxacillin. […]

The subject of assay [2] is methicillin resistant strain of Staphylococcus aureus (MRSA clinical isolate). As to the kind of experiment: ATP assay (ligase/quantitative PCR) of Staphylococcus aureus susceptibility to antibiotic, MRSA strain. Particulars: grown 3 hours at 37° C. with 60 μg/ml oxacillin; FIG. 8. In kind it is cell-based. As to the method: as §1
There is growth and an increase of ATP observed after 3 hr in the absence of antibiotic compared to the zero time point. […] The organism is not sensitive to this antibiotic and continues to grow and produce ATP in the presence of this antibiotic.

Take `Cc1onc(-c2ccccc2)c1C(=O)N[C@@H]1C(=O)N2[C@@H]1SC(C)(C)[C@@H]2C(=O)O` [oxacillin]: the “growth and increase in ATP after 3 hr compared to the zero time point” value was “not observed” in assay [1] and “reduced but not abrogated” in assay [2].
